Source: patent publication US20240199546A1, “INHIBITORS OF SOLUTE CARRIER FAMILY 6A MEMBER 19 (SLC6A19) AND METHODS OF USE THEREOF” (Maze Therapeutics, Inc., priority 2022, published 2024)
pIC50: −log10 of the molar value.

target: T1, human SLC6A19 and TMEM27 (Homo sapiens, UniProt Q695T7); experiment: Radiolabelled (3H) leucine uptake in CHO cells with doxycycline-inducible expression of human SLC6A19 and TMEM27 (Example B-1); assay type: cell-based; details: CHO cells with doxycycline-inducible expression of human SLC6A19 and TMEM27, read-out: SLC6A19_Radioligand Uptake Assay IC50
T1 construct: expressed in transfected cells
T1 sequence (Q695T7 1-634): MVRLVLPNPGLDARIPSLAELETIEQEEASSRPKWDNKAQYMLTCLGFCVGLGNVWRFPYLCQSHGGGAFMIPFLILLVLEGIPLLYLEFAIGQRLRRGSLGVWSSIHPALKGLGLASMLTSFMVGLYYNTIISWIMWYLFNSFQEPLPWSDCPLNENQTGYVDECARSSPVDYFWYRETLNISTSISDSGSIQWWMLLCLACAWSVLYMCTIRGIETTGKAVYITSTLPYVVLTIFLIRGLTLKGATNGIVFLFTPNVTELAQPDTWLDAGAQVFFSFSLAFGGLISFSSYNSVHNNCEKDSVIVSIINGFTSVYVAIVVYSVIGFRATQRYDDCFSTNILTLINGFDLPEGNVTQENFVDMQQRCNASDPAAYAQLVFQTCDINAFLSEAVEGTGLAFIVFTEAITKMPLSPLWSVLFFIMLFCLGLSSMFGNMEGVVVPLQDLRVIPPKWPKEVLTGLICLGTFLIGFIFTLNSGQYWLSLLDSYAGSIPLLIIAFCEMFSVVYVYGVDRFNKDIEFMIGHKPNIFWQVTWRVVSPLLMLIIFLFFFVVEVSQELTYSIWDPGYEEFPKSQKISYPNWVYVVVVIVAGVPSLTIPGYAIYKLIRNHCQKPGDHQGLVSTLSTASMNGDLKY
T1 sequence (Q9HBJ8 15-222 partner): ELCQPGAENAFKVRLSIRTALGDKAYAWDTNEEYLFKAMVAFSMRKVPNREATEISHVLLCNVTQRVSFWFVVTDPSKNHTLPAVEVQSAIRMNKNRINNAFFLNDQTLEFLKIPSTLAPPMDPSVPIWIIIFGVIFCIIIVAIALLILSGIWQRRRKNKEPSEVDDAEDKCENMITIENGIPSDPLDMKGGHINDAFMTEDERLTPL
Method in brief: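 CHO cells were induced with doxycycline for 18 h at 37 °C, washed in HBSS, then exposed to compounds for 1 h: 8-point, 3-fold dilutions in duplicate, 0.5% DMSO final. Uptake measured by scintillation counting after 2 h shaking. Activity normalized with positive control as 0% and DMSO as 100%.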

Row | pIC50 | SMILES
1 | < 5.19 | CC1(C(=O)NCc2cc3cc(Cl)c(OCc4cc5ccccc5[nH]4)cc3[nH]2)CC1 [Compound 607, N-((6-((1H-indol-2-yl)methoxy)-5-chloro-1H-indol-2-yl)methyl)-1-methylcyclopropane-1-carboxamide]
2 | 6.33 | Cc1cc(COc2cc3[nH]c(CNC(=O)N4CCC(F)C4)cc3cc2Cl)on1 (racemic) [Compound 373, (R)-N-((5-chloro-6-((3-methylisoxazol-5-yl)methoxy)-1H-indol-2-yl)methyl)-3-fluoropyrrolidine-1-carboxamide and (S)-N-((5-chloro-6-((3-methylisoxazol-5-yl)methoxy)-1H-indol-2-yl)methyl)-3-fluoropyrrolidine-1-carboxamide]
3 | 6.80 | CC(=O)NCc1cc2cc(Cl)c(OCCOC(F)(F)F)cc2[nH]1 [Compound 338, N-((5-chloro-6-(2-(trifluoromethoxy)ethoxy)-1H-indol-2-yl)methyl)acetamide]
4 | 6.08 | Cc1cc(COc2cc3[nH]c(CNC(=O)[C@@H]4CCN4C)cc3cc2Cl)on1 [Compound 576, (S)-N-((5-chloro-6-((3-methylisoxazol-5-yl)methoxy)-1H-indol-2-yl)methyl)-1-methylazetidine-2-carboxamide]
5 | 5.26 | Cc1cc(COc2cc3[nH]c(CNC(=O)N4CCC45COC5)cc3cc2Cl)on1 [Compound 378, N-((5-chloro-6-((3-methylisoxazol-5-yl)methoxy)-1H-indol-2-yl)methyl)-6-oxa-1-azaspiro[3.3]heptane-1-carboxamide]
6 | 6.48 | CC1(C(=O)NCc2cc3cc(Cl)c(OCc4cscn4)cc3[nH]2)CCC1 [Compound 506, N-((5-chloro-6-(thiazol-4-ylmethoxy)-1H-indol-2-yl)methyl)-1-methylcyclobutane-1-carboxamide]
7 | 6.49 | CC1(C(=O)NCc2cc3cc(F)c(OCc4cscn4)cc3[nH]2)CCC1 [Compound 507, N-((5-fluoro-6-(thiazol-4-ylmethoxy)-1H-indol-2-yl)methyl)-1-methylcyclobutane-1-carboxamide]
8 | 6.79 | O=C(NCc1cc2cc(Cl)c(OCc3ccon3)cc2[nH]1)C1CCC1 [Compound 488, N-((5-chloro-6-(isoxazol-3-ylmethoxy)-1H-indol-2-yl)methyl)cyclobutanecarboxamide]
9 | 5.21 | CC(=O)NCc1cc2cc(Cl)c(OC[C@H]3CCCO3)cc2[nH]1 [Compound 465, (R)-N-((5-chloro-6-((tetrahydrofuran-2-yl)methoxy)-1H-indol-2-yl)methyl)acetamide]
10 | 6.73 | [2H]C([2H])([2H])c1cc(COc2cc3[nH]c(CNC(=O)C4(C)CC4)cc3cc2F)no1 [Compound 664, N-((5-fluoro-6-((5-(methyl-d3)isoxazol-3-yl)methoxy)-1H-indol-2-yl)methyl)-1-methylcyclopropane-1-carboxamide]
11 | 6.83 | O=C(NCc1cc2cc(F)c(OCc3ccon3)cc2[nH]1)C1CC1 [Compound 140, N-((5-fluoro-6-(isoxazol-3-ylmethoxy)-1H-indol-2-yl)methyl)cyclopropanecarboxamide]
12 | 7.16 | CC(=O)NCc1cc2cc(Cl)c(OCc3cc(C)on3)cc2[nH]1 [Compound 142, N-((5-chloro-6-((5-methylisoxazol-3-yl)methoxy)-1H-indol-2-yl)methyl)acetamide]
13 | 6.20 | Cc1cc(COc2cc(F)c3cc(CNC(=O)N4CCC4)[nH]c3c2)on1 [Compound 427, N-((4-fluoro-6-((3-methylisoxazol-5-yl)methoxy)-1H-indol-2-yl)methyl)azetidine-1-carboxamide]
14 | 5.71 | CC1(C(=O)NCc2cc3cc(-c4ccon4)c(OCc4cscn4)cc3[nH]2)CC1 [Compound 659, N-((5-(isoxazol-3-yl)-6-(thiazol-4-ylmethoxy)-1H-indol-2-yl)methyl)-1-methylcyclopropane-1-carboxamide]
15 | 6.17 | CC1(C(=O)NCc2cc3cc(Cl)c(OCCC4CCC4)cc3[nH]2)CC1 [Compound 394, N-((5-chloro-6-(2-cyclobutylethoxy)-1H-indol-2-yl)methyl)-1-methylcyclopropane-1-carboxamide]
16 | 6.20 | Cc1cc(COc2cc3[nH]c(CNC(=O)C4OCCC4(F)F)cc3cc2Cl)on1 (stereo not drawn) [Compound 306, N-((5-chloro-6-((3-methylisoxazol-5-yl)methoxy)-1H-indol-2-yl)methyl)-3,3-difluorotetrahydrofuran-2-carboxamide]
17 | 5.35 | CN1CC(C(=O)NCc2cc3cc(Cl)c(OCc4cscn4)cc3[nH]2)C1=O (racemic) [Compound 546, (R)-N-((5-chloro-6-(thiazol-4-ylmethoxy)-1H-indol-2-yl)methyl)-1-methyl-2-oxoazetidine-3-carboxamide and (S)-N-((5-chloro-6-(thiazol-4-ylmethoxy)-1H-indol-2-yl)methyl)-1-methyl-2-oxoazetidine-3-carboxamide]
18 | 6.67 | O=C(NCc1cc2cc(Cl)c(OCc3cocn3)cc2[nH]1)C1CC1 [Compound 429, N-((5-chloro-6-(oxazol-4-ylmethoxy)-1H-indol-2-yl)methyl)cyclopropanecarboxamide]
19 | 6.37 | Cc1cc(COc2cc3[nH]c(CNC(=O)C4(C)CC4)cc3cc2Cl)ns1 [Compound 399, N-((5-chloro-6-((5-methylisothiazol-3-yl)methoxy)-1H-indol-2-yl)methyl)-1-methylcyclopropane-1-carboxamide]
20 | 6.76 | C[C@@H]1CCCN1C(=O)NCc1cc2cc(F)c(OCc3cscn3)cc2[nH]1 [Compound 386, (R)-N-((5-fluoro-6-(thiazol-4-ylmethoxy)-1H-indol-2-yl)methyl)-2-methylpyrrolidine-1-carboxamide]
21 | 6.88 | Cc1cc(COc2cc3[nH]c(CNC(=O)[C@@H]4C[C@@H]4F)cc3cc2Cl)on1 [Compound 540, (1S,2S)-N-((5-chloro-6-((3-methylisoxazol-5-yl)methoxy)-1H-indol-2-yl)methyl)-2-fluorocyclopropane-1-carboxamide]
22 | 5.62 | Cc1cc(COc2cc3[nH]c(CNC(=O)C[C@@H](C)O)cc3cc2Cl)on1 [Compound 287, (R)-N-((5-chloro-6-((3-methylisoxazol-5-yl)methoxy)-1H-indol-2-yl)methyl)-3-hydroxybutanamide]
23 | 5.99 | CC[C@@H](O)C(=O)NCc1cc2cc(Cl)c(OCc3cc(C)no3)cc2[nH]1 [Compound 241, (R)-N-((5-chloro-6-((3-methylisoxazol-5-yl)methoxy)-1H-indol-2-yl)methyl)-2-hydroxybutanamide]
24 | 6.84 | CC1(C(=O)NCc2cc3cc(OC(F)F)c(OCc4ccon4)cc3[nH]2)CC1 [Compound 605, N-((5-(difluoromethoxy)-6-(isoxazol-3-ylmethoxy)-1H-indol-2-yl)methyl)-1-methylcyclopropane-1-carboxamide]
25 | < 5.03 | CC1(C(=O)NCc2cc3cc(Cl)c(CCn4cnnn4)cc3[nH]2)CC1 [Compound 585, N-((6-(2-(1H-tetrazol-1-yl)ethyl)-5-chloro-1H-indol-2-yl)methyl)-1-methylcyclopropane-1-carboxamide]
26 | 6.76 | CC1(C(=O)NCc2cc3cc(Cl)c(OCc4ccon4)c(F)c3[nH]2)CC1 [Compound 16, N-((5-chloro-7-fluoro-6-(isoxazol-3-ylmethoxy)-1H-indol-2-yl)methyl)-1-methylcyclopropane-1-carboxamide]
27 | 6.68 | Cc1cc(COc2cc3[nH]c(CNC(=O)C(C)C#N)cc3cc2Cl)on1 (single isomer, unassigned) [Compound 447, (S or R)-N-((5-chloro-6-((3-methylisoxazol-5-yl)methoxy)-1H-indol-2-yl)methyl)-2-cyanopropanamide]
28 | 4.83 | Cc1cc(C(C)Cc2ccc3cc(CNC(=O)C4(C)CC4)[nH]c3c2)no1 (stereo not drawn) [Compound 195, 1-methyl-N-((6-(2-(5-methylisoxazol-3-yl)propyl)-1H-indol-2-yl)methyl)cyclopropanecarboxamide]
29 | 5.92 | CC1(C(=O)NCc2cc3cc(Cl)c(OCC4COC4)cc3[nH]2)CC1 [Compound 336, N-((5-chloro-6-(oxetan-3-ylmethoxy)-1H-indol-2-yl)methyl)-1-methylcyclopropane-1-carboxamide]
30 | 6.02 | Cc1cc(COc2cc3[nH]c(CNC(=O)N4CCCC4C(F)F)cc3cc2Cl)on1 (racemic) [Compound 375, (S)-N-((5-chloro-6-((3-methylisoxazol-5-yl)methoxy)-1H-indol-2-yl)methyl)-2-(difluoromethyl)pyrrolidine-1-carboxamide and (R)-N-((5-chloro-6-((3-methylisoxazol-5-yl)methoxy)-1H-indol-2-yl)methyl)-2-(difluoromethyl)pyrrolidine-1-carboxamide]
